This series is described as follows: Solid state form and hygroscopicity, as stated in the description. The settings on record: hydrochloride salts. Format: physicochemical.
Regarding `CCOC(=O)C[C@@H](NC(=O)CN1C(=O)N[C@](C)(c2ccc(C(=N)N)cc2)C1=O)c1ccccc1` [ethyl (R)-3-(2-((R)-4-(4-(amino-imino-methyl)phenyl)-4-methyl-2,5-dioxo-imidazolidin-1-yl)acetylamino)-3-phenylpropionate], the solid state form result is “amorphous and cannot be obtained in the crystalline state”.
For `CCOC(=O)C[C@@H](NC(=O)CN1C(=O)N[C@@](C)(c2ccc(C(=N)N)cc2)C1=O)c1ccccc1` [ethyl (R)-3-(2-((S)-4-(4-(amino-imino-methyl)phenyl)-4-methyl-2,5-dioxoimidazolidin-1-yl)acetylamino)-3-phenylpropionate] the value was “amorphous and cannot be obtained in the crystalline state”; for `CCOC(=O)C[C@H](NC(=O)CN1C(=O)N[C@](C)(c2ccc(C(=N)N)cc2)C1=O)c1ccccc1` [ethyl (S)-3-(2-((R)-4-(4-(amino-imino-methyl)phenyl)-4-methyl-2,5-dioxoimidazolidin-1-yl)-acetylamino)-3-phenylpropionate], “amorphous and cannot be obtained in the crystalline state”; for `CCOC(=O)C[C@H](NC(=O)CN1C(=O)N[C@@](C)(c2ccc(C(=N)N)cc2)C1=O)c1ccccc1` [ethyl (S)-3-(2-((S)-4-(4-(amino-imino-methyl)phenyl)-4-methyl-2,5-dioxoimidazolidin-1-yl)acetylamino)-3-phenylpropionate], “amorphous and cannot be obtained in the crystalline state”.
